{"source": "patent US20060148710A1", "about": "“Oligopeptides, composition and use thereof as elicitors of the natural defences of plants” (DE Sangosse SA, priority 2003, published 2006)", "key": {"Zucchini plants": {"system": "Zucchini plants", "assay": "Peroxydasic activity in treated zucchini plants", "format": "in vivo", "details": "for Peroxydasic activity / Percent of peroxydasic activity relative to the product: zucchini plants aged 3 weeks, product 3.5 mg/L; for Percent of peroxydasic activity relative to the product: product 6 = 100%; for elicitor activity: zucchini plants, comparison in words", "text": "(§1) a) Measurement of the Peroxydasic Acttivity (Enzyme Endogenous to Plants)\n(§2) Given the primordial role of the peroxydases in the resistance of plants, we have used the peroxydasic activity as a marker of the resistance following treatments by elicitors.\n(§3) So as to measure the peroxydasic activities, leaves are crushed in a citrate-monohydrogeno-phosphate-disodium buffer. The extract is then placed in gaiacol and oxygenated water. A rapid reaction takes place: the gaiacol is transformed into tetragaiacol. The appearance of tetragaiacol in the medium permits us to calculate the peroxydasic activity.\n(§4) Measurements are carried out in this same buffer by using the gaiacol as substrate. The results are expressed in ΔDO/mn/g of fresh material.\n(§5) All the plants tested are young plants obtained from seed or by slipping. Pulverization is effected of the formulations obtained from oligopeptides. These formulations contain various wetting or penetrating agents capable of carrying the active material (oligopeptides) to the cells.\nZucchini plants aged 3 weeks have been treated with oligopeptides."}, "tobacco plants": {"system": "tobacco plants", "details": "10 mM; cited from earlier work"}, "Grape plants [1]": {"system": "Grape plants", "assay": "Peroxydasic activity in treated grape plants", "format": "in vivo", "details": "grape plants aged 3 weeks", "text": "as §1, §2, §3, §4, §5\n(§6) Grape plants aged 3 weeks have been treated with oligopeptides. The results obtained are assembled in Tables II, III (Sheet 1/2)."}, "Grape plants [2]": {"system": "Grape plants", "assay": "Chitinasic activity in treated grape plants", "format": "in vivo", "details": "grape plants aged 3 weeks", "protocol": "b) Measurement of the Chitinasic Activity\nSo as to verify that the mechanisms of resistance are triggered, we have also measured an enzymatic activity appearing in the situations of resistance: the chitinasic activity (enzyme synthesis upon attack of the parasites, which degrades chitin, constituting the walls of the phytopathogenic mushrooms).\nColormetric reaction used: there is used an acetate buffer:\nSolution of chitin+enzymatic extract+acetate buffer qsp 0.5 ml (blue at 2 mg/ml) crude 50 mM-(pH5) (100 microliters)\nincubation for 30 minutes at 37° C., and under continuous agitation.\nthe reaction is stopped by addition of a solution of HCL 1N\ncolormetric or spectrophotometric measurement at 550 nm\nThe chitinasic activity is expressed as ΔDO/mn/g of fresh material.\nas §5, §6"}}, "note": "Where “and” joins values, the source holds several entries; their conditions need not be identical. Identical values can stand only once."}
{"molecule": "CC(C)(N)C(=O)O", "note": "[Aib, α-aminoisobutyric acid, reference compound]", "values": [{"measurement": "Peroxydasic activity", "setting": "Zucchini plants", "result": "53.1 ΔDO/min/aMF"}, {"measurement": "Percent of peroxydasic activity relative to the product", "setting": "Zucchini plants", "result": 15.26, "unit": "%"}]}
{"molecule": "C[C@H](N)C(=O)O", "note": "[Alanine, reference compound]", "values": [{"measurement": "Peroxydasic activity", "setting": "Zucchini plants", "result": "65.78 ΔDO/min/aMF"}, {"measurement": "Percent of peroxydasic activity relative to the product", "setting": "Zucchini plants", "result": 18.9, "unit": "%"}]}
{"molecule": "CC(N)CO", "note": "(centres unmarked) [Alininol, Alaninol, reference compound]", "values": [{"measurement": "Peroxydasic activity", "setting": "Zucchini plants", "result": "69.46 ΔDO/min/aMF"}, {"measurement": "Percent of peroxydasic activity relative to the product", "setting": "Zucchini plants", "result": 19.96, "unit": "%"}, {"measurement": "elicitor activity", "setting": "Zucchini plants", "result": "most active of the residues tested"}]}
{"molecule": "NCCCC(=O)O", "note": "[GABA, γ-aminobutyric acid, reference compound]", "values": [{"measurement": "Peroxydasic activity", "setting": "Zucchini plants", "result": "49.1 ΔDO/min/aMF"}, {"measurement": "Percent of peroxydasic activity relative to the product", "setting": "Zucchini plants", "result": 14.11, "unit": "%"}, {"measurement": "capacity to trigger the ARS", "setting": "tobacco plants", "result": "totally inactive"}]}
{"molecule": "CCC(N)C(=O)O", "note": "(stereo not drawn) [α-aminobutyric acid]", "values": [{"measurement": "capacity to trigger the ARS", "setting": "tobacco plants", "result": "less active"}]}
{"molecule": "CC(N)CC(=O)O", "note": "(stereo not drawn) [β-aminobutyric acid]", "values": [{"measurement": "capacity to trigger the ARS", "setting": "tobacco plants", "result": "active"}]}
{"molecule": "H-Ala1-Ala-ol [Product 7]", "values": [{"measurement": "Peroxydasic activity", "setting": "Zucchini plants", "result": "99.16 ΔDO/min/aMF"}, {"measurement": "Percent of peroxydasic activity relative to the product", "setting": "Zucchini plants", "result": 28.49, "unit": "%"}]}
{"molecule": "H-Ala2-Ala-ol [Product 8]", "values": [{"measurement": "Peroxydasic activity", "setting": "Zucchini plants", "result": "94.6 ΔDO/min/aMF"}, {"measurement": "Percent of peroxydasic activity relative to the product", "setting": "Zucchini plants", "result": 27.18, "unit": "%"}]}
{"molecule": "H-Ala3-Ala-ol [Product 9]", "values": [{"measurement": "Peroxydasic activity", "setting": "Zucchini plants", "result": "112 ΔDO/min/aMF"}, {"measurement": "Percent of peroxydasic activity relative to the product", "setting": "Zucchini plants", "result": 32.18, "unit": "%"}]}
{"molecule": "H-Ala4-Ala-ol [Product 10]", "values": [{"measurement": "Peroxydasic activity", "setting": "Zucchini plants", "result": "194 ΔDO/min/aMF"}, {"measurement": "Percent of peroxydasic activity relative to the product", "setting": "Zucchini plants", "result": 55.74, "unit": "%"}]}
{"molecule": "H-Ala5-Ala-ol [Product 11]", "values": [{"measurement": "Peroxydasic activity", "setting": "Zucchini plants", "result": "102 ΔDO/min/aMF"}, {"measurement": "Percent of peroxydasic activity relative to the product", "setting": "Zucchini plants", "result": 29.31, "unit": "%"}]}
{"molecule": "H-Ala6-Ala-OH [Product 12]", "values": [{"measurement": "Peroxydasic activity", "setting": "Zucchini plants", "result": "175 ΔDO/min/aMF"}, {"measurement": "Percent of peroxydasic activity relative to the product", "setting": "Zucchini plants", "result": "50% and 50.28%"}]}
{"molecule": "H-Alan-Ala-OH [Product 13]", "values": [{"measurement": "Percent of peroxydasic activity relative to the most active product", "setting": "Grape plants [1]", "result": 59.49, "unit": "%"}, {"measurement": "Peroxydasic activity", "setting": "Grape plants [1]", "result": "136.6 ΔDO/mn/g of fresh material"}, {"measurement": "Chitinasic activity", "setting": "Grape plants [2]", "result": "65.3 ΔDO/mn/g of fresh material"}, {"measurement": "Percent of chitinasic activity relative to the most active product", "setting": "Grape plants [2]", "result": 100, "unit": "%"}]}
{"molecule": "H-Alan-Ala-ol [Product 6]", "values": [{"measurement": "Peroxydasic activity", "setting": "Zucchini plants", "result": "348 ΔDO/min/aMF"}, {"measurement": "Percent of peroxydasic activity relative to the product", "setting": "Zucchini plants", "result": 100, "unit": "%"}, {"measurement": "elicitor activity", "setting": "Zucchini plants", "result": "strongest elicitor activity"}, {"measurement": "Percent of peroxydasic activity relative to the most active product", "setting": "Grape plants [1]", "result": 81.66, "unit": "%"}, {"measurement": "Peroxydasic activity", "setting": "Grape plants [1]", "result": "187.5 ΔDO/mn/g of fresh material"}, {"measurement": "Chitinasic activity", "setting": "Grape plants [2]", "result": "45.4 ΔDO/mn/g of fresh material"}, {"measurement": "Percent of chitinasic activity relative to the most active product", "setting": "Grape plants [2]", "result": 80.94, "unit": "%"}]}
